Test results taken from US11339171B2, “MDM2 inhibitors” (Gan & Lee Pharmaceuticals, priority 2017, dated 2022).
“And” between values parts separate entries of the source, which are not always exact repeats. Equal entries are not always repeated. Where two headings read alike, the source gives them in different places.

What was measured:
MDM2 = biological target: T1, MDM2 (Homo sapiens, UniProt Q00987); experiment: Inhibition test of MDM2-P53 (GST-MDM2, Biotin-P53, Anti-GST-Tb, SA-XL665); assay type: binding
T1 construct: made in house
T1 sequence (Q00987 whole entry): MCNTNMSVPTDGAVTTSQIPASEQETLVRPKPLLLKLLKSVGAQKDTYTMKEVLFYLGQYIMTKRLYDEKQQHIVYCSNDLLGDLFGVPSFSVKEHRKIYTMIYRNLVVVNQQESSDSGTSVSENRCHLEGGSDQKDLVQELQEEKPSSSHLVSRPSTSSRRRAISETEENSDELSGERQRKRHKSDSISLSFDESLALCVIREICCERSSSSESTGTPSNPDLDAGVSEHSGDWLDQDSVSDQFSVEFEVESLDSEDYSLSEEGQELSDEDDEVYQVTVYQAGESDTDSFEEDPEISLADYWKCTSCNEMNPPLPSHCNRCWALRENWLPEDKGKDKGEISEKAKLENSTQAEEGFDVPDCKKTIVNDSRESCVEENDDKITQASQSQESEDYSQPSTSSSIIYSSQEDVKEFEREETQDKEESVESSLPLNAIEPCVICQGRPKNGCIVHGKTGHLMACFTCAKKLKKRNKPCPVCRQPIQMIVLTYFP
In short: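 HTRF-type assay using 4 nM GST-MDM2 (final), Biotin-P53, SA-XL665 and anti-GST-Tb in PBS with 0.1% BSA, 5 mM DTT and 1 mM AEBSF. Compounds in 5-fold serial dilutions over twelve points; incubation 90 min at 25° C with shaking before plate-reader read-out.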

[1] = Pharmacokinetics in ICR mice after intravenous and intragastric administration; assay type: in vivo; details: for MRT last: read-out: MRT(0-t); for MRT inf: read-out: MRT(0-∞); for Tmax: read-out: Tmax; for Vd: read-out: Vz; for half-life: read-out: t1/2 (converted)
In short: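 Plasma concentrations by LC-MS/MS (range 1 to 2000 ng/ml) following single intravenous (2 mg/kg) or oral gavage (5 mg/kg) dosing of fasted male ICR mice, three per group. Vehicle 5% DMSO + 40% PEG400 + 55% (10% HP-β-CD in saline); standard PK parameters including bioavailability calculated.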

[2] = tested on: human osteosarcoma cell line SJSA-1; experiment: Inhibition of proliferation of human osteosarcoma cell line SJSA-1 (DAPI staining, In Cell Analyzer); details: Homo sapiens, SJSA-1, 72 h, read-out: IC50 (nM), inhibitory activity on proliferation of human osteosarcoma cell line SJSA-1, SJSA-1, incubated 72 h
[3] = ICR mice, IV 2 mg/kg, individual animal, 2 mg/kg
[4] = ICR mice, PO 5 mg/kg, individual animal, 5 mg/kg
[5] = male, ICR, mouse, plasma, iv, 2 mg/kg, ICR mice, IV 2 mg/kg, individual animal
[6] = male, ICR, mouse, plasma, iv, 2 mg/kg, ICR mice, IV 2 mg/kg, mean of 3 animals
[7] = male, ICR, mouse, plasma, po, 5 mg/kg, ICR mice, PO 5 mg/kg, individual animal
[8] = male, ICR, mouse, plasma, po, 5 mg/kg, ICR mice, PO 5 mg/kg, mean of 3 animals

COc1cc(OC)c(-c2nc3c(n2C(C)C)[C@@]2(C(=O)Nc4cc(Cl)ccc42)N(c2cc(Cl)ccc2F)C3=O)cn1 [Example S-133, (S)-6-chloro-5′-(5-chloro-2-fluorophenyl)-2′-(4,6-dimethoxypyridin-3-yl)-3′-isopropyl-3′H-spiro[dihydroindole-3,4′-pyrrolo[3,4-d]imidazole]-2,6′(5′H)-dione]
IC50 (MDM2): 0.00141 µM
AUC(0-t) [1, 3]: 3187.22 ng·h/mL and 2904.29 ng·h/mL
AUC(0-∞) [1, 3]: 3247.82 ng·h/mL and 3022.24 ng·h/mL
CL [1, 3]: 10.26 mL/min/kg and 11.03 mL/min/kg
Cmax [1, 3]: 2521.09 ng/mL and 2055.95 ng/mL
MRT(0-t) [1, 3]: 1.05 h and 1.20 h
MRT(0-∞) [1, 3]: 1.17 h and 1.45 h
Vz [1, 3]: 1.01 L/kg and 1.16 L/kg
t1/2 [1, 3]: 1.13 h and 1.22 h
AUC(0-t) [1, 4]: 4282.62 ng·h/mL and 5953.82 ng·h/mL
AUC(0-∞) [1, 4]: 4314.80 ng·h/mL and 5994.87 ng·h/mL
Cmax [1, 4]: 1489.30 ng/mL and 2195.02 ng/mL
MRT(0-t) [1, 4]: 2.17 h and 2.05 h
MRT(0-∞) [1, 4]: 2.22 h and 2.10 h
t1/2 [1, 4]: 1.05 h and 1.04 h
AUC(0-inf) [1, 5]: 4700 ng·h/mL
clearance [1, 5]: 7.09 mL/min/kg
AUC(0-t) ([1]; male, ICR, mouse, plasma, iv, 2 mg/kg, ICR mice, IV 2 mg/kg, individual animal, read-out: AUC(0-t)): 4600 ng·h/mL
Cmax ([1]; male, ICR, mouse, plasma, iv, 2 mg/kg, ICR mice, IV 2 mg/kg, individual animal, read-out: Cmax): 2980 ng/mL
MRT last [1, 5]: 1.18 h
MRT inf [1, 5]: 1.31 h
Tmax [1, 5]: 0.08 h
Vd [1, 5]: 0.66 L/kg
half-life [1, 5]: 1.07 h
AUC(0-inf) [1, 6]: 3660 ng·h/mL
clearance [1, 6]: 9.46 mL/min/kg
AUC(0-t) ([1]; male, ICR, mouse, plasma, iv, 2 mg/kg, ICR mice, IV 2 mg/kg, mean of 3 animals, read-out: AUC(0-t)): 3560 ng·h/mL
Cmax ([1]; male, ICR, mouse, plasma, iv, 2 mg/kg, ICR mice, IV 2 mg/kg, mean of 3 animals, read-out: Cmax): 2520 ng/mL
MRT last [1, 6]: 1.14 h
MRT inf [1, 6]: 1.31 h
Tmax [1, 6]: 0.083 h
Vd [1, 6]: 0.94 L/kg
half-life [1, 6]: 1.14 h
AUC(0-inf) [1, 7]: 6150 ng·h/mL
AUC(0-t) ([1]; male, ICR, mouse, plasma, po, 5 mg/kg, ICR mice, PO 5 mg/kg, individual animal, read-out: AUC(0-t)): 6070 ng·h/mL
Cmax ([1]; male, ICR, mouse, plasma, po, 5 mg/kg, ICR mice, PO 5 mg/kg, individual animal, read-out: Cmax): 1570 ng/mL
MRT last [1, 7]: 2.34 h
MRT inf [1, 7]: 2.43 h
Tmax [1, 7]: 1 h
half-life [1, 7]: 1.15 h
AUC(0-inf) [1, 8]: 5490 ng·h/mL
AUC(0-t) ([1]; male, ICR, mouse, plasma, po, 5 mg/kg, ICR mice, PO 5 mg/kg, mean of 3 animals, read-out: AUC(0-t)): 5440 ng·h/mL
Cmax ([1]; male, ICR, mouse, plasma, po, 5 mg/kg, ICR mice, PO 5 mg/kg, mean of 3 animals, read-out: Cmax): 1750 ng/mL
MRT last [1, 8]: 2.19 h
MRT inf [1, 8]: 2.25 h
Tmax [1, 8]: 1 h
half-life [1, 8]: 1.08 h
AUC(0-t) ([1]; male, ICR, mouse, plasma, po, 5 mg/kg, oral intragastric administration 5 mg/kg, read-out: AUC0-t): 5440 ng·h/mL
bioavailability ([1]; male, mouse, plasma, ICR mice, PO 5 mg/kg vs IV 2 mg/kg, from mean values, read-out: F* (bioavailability)): 61%
IC50 [2]: 99.8 nM
